The results in this text go back to the NIST ThermoML archive (doi:10.1021/je030151s).

SMILES strings stand for the structures. ± gives the expanded uncertainty stated by the source.

The conditions of series [1]: 101.3 kPa, Liquid; for viscosity: Capillary tube (Ostwald / Ubbelohde) method.
Series [2] is described as follows: xn = mol fraction of the nth substance listed. As to conditions: 101.3 kPa, Liquid, x2 = 0; for viscosity: Capillary tube (Ostwald / Ubbelohde) method.

Usually mass density stands for mass per unit of volume. The term speed of sound denotes the propagation velocity of pressure waves in the medium. What is called viscosity is the internal friction of a fluid under shear. In the case of `CCC(=O)CC` [pentan-3-one], in series [1] (293.15 K), the mass density is reported as 814.4 ± 1.1 kg/m3, the speed of sound is given as 1230.7 ± 3.3 m/s and the viscosity is recorded as 0.4714 ± 0.0064 mPa·s. In addition, in series [1] (303.15 K), the mass density came to 804.7 ± 1.1 kg/m3, the speed of sound is on record as 1197.8 ± 3.3 m/s and the viscosity amounted to 0.4231 ± 0.0059 mPa·s. For the same molecule, in series [1] (313.15 K), the mass density is 794.9 ± 1.2 kg/m3, the speed of sound worked out at 1159.1 ± 3.3 m/s and the viscosity came out at 0.3799 ± 0.0055 mPa·s.

In the case of `Cc1ccccc1C` [1,2-dimethylbenzene], the mass density in series [1] (293.15 K) is 880.2 ± 1.2 kg/m3; in series [1] (303.15 K), 871.8 ± 1.2 kg/m3; in series [1] (313.15 K), 863.2 ± 1.3 kg/m3. The speed of sound in series [1] (293.15 K) was 1365.6 ± 3.5 m/s; in series [1] (303.15 K), 1339 ± 3.5 m/s; in series [1] (313.15 K), 1297.5 ± 3.4 m/s. For the same molecule, the viscosity is 0.8092 ± 0.0098 mPa·s in series [1] (293.15 K), 0.7172 ± 0.0089 mPa·s in series [1] (303.15 K) and 0.6292 ± 0.0079 mPa·s in series [1] (313.15 K).

Take `Cc1ccccc1C` [1,2-dimethylbenzene] + CCC(=O)CC: in series [2] (293.15 K), the viscosity stood at 0.8092 ± 0.0098 mPa·s, the mass density is recorded as 880.2 ± 1.2 kg/m3 and the speed of sound is reported as 1365.6 ± 3.5 m/s. In addition, in series [2] (303.15 K), the viscosity is 0.7172 ± 0.0089 mPa·s, the mass density came out at 871.8 ± 1.2 kg/m3 and the speed of sound stood at 1339 ± 3.5 m/s. Moreover, in series [2] (313.15 K), the viscosity was determined as 0.6292 ± 0.0079 mPa·s, the mass density was 863.2 ± 1.3 kg/m3 and the speed of sound was found to be 1297.5 ± 3.4 m/s.

In the case of `CCc1ccccc1` [ethylbenzene], the mass density was 867.4 ± 1.2 kg/m3 in series [1] (293.15 K), 856.5 ± 1.2 kg/m3 in series [1] (303.15 K) and 848.9 ± 1.3 kg/m3 in series [1] (313.15 K). In addition, the speed of sound in series [1] (293.15 K) worked out at 1333.4 ± 3.5 m/s; in series [1] (303.15 K), 1295.7 ± 3.4 m/s; in series [1] (313.15 K), 1259.8 ± 3.4 m/s. Further, the viscosity came out at 0.6793 ± 0.0085 mPa·s in series [1] (293.15 K), 0.6006 ± 0.0077 mPa·s in series [1] (303.15 K) and 0.5355 ± 0.007 mPa·s in series [1] (313.15 K).

Turning to `CCc1ccccc1` [ethylbenzene] + CCC(=O)CC, the viscosity turned out to be 0.6793 ± 0.0085 mPa·s in series [2] (293.15 K), 0.6006 ± 0.0077 mPa·s in series [2] (303.15 K) and 0.5355 ± 0.007 mPa·s in series [2] (313.15 K). For the same molecule, the mass density in series [2] (293.15 K) came out at 867.4 ± 1.2 kg/m3; in series [2] (303.15 K), 856.5 ± 1.2 kg/m3; in series [2] (313.15 K) it was 848.9 ± 1.3 kg/m3. The speed of sound in series [2] (293.15 K) is 1333.4 ± 3.5 m/s; in series [2] (303.15 K), 1295.7 ± 3.4 m/s; in series [2] (313.15 K), 1259.8 ± 3.4 m/s.
